Measurements taken from the supplement of paper PMC10307832.

How the values were obtained:
Experiment in all cases: relative viability (nuclei count vs DMSO), 5 days (fraction); higher = more cells survive
Dinaciclib + Pemetrexed = compound: CCc1cnn2c(NCc3ccc[n+]([O-])c3)cc(N3CCCC[C@H]3CCO)nc12 [Dinaciclib] + Nc1nc2[nH]cc(CCc3ccc(C(=O)N[C@@H](CCC(=O)O)C(=O)O)cc3)c2c(=O)[nH]1 [Pemetrexed] (partner 0.2 µM)
Outline: (§1)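 Values are medians from duplicate plates. Each reflects relative viability, defined as the nuclei count of treated wells over that of vehicle wells. Lung cancer cell lines in 1536-well plates were pin-tool dosed one day after seeding with one drug alone or with a fixed anchor-drug dose plus five library-drug doses (not always all listed) in √10 steps, then fixed, stained and imaged at 4× after 5 days.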

Dinaciclib + Decitabine = compound: CCc1cnn2c(NCc3ccc[n+]([O-])c3)cc(N3CCCC[C@H]3CCO)nc12 [Dinaciclib] + Nc1ncn([C@H]2C[C@H](O)[C@@H](CO)O2)c(=O)n1 [Decitabine] (partner 2 µM)
Outline: as §1

Dinaciclib + Olaparib = compound: CCc1cnn2c(NCc3ccc[n+]([O-])c3)cc(N3CCCC[C@H]3CCO)nc12 [Dinaciclib] + O=C(c1cc(Cc2n[nH]c(=O)c3ccccc23)ccc1F)N1CCN(C(=O)C2CC2)CC1 [Olaparib] (partner 8 µM)
Outline: as §1

Dinaciclib + Vorinostat = compound: CCc1cnn2c(NCc3ccc[n+]([O-])c3)cc(N3CCCC[C@H]3CCO)nc12 [Dinaciclib] + O=C(CCCCCCC(=O)Nc1ccccc1)NO [Vorinostat] (partner 1 µM)
Outline: as §1

Dinaciclib + Alpelisib = compound: CCc1cnn2c(NCc3ccc[n+]([O-])c3)cc(N3CCCC[C@H]3CCO)nc12 [Dinaciclib] + Cc1nc(NC(=O)N2CCC[C@H]2C(N)=O)sc1-c1ccnc(C(C)(C)C(F)(F)F)c1 [Alpelisib] (partner 2 µM)
Outline: as §1

Cell Line: LCLC-103H
- relative viability (Dinaciclib + Pemetrexed; first compound 0.009487 µM): 0.465
- relative viability (Dinaciclib + Pemetrexed; first compound 0.03 µM): 0.566
- relative viability (Dinaciclib + Pemetrexed; first compound 0.09487 µM): 0.223
- relative viability (Dinaciclib + Pemetrexed; first compound 0.3 µM): 0.217
- relative viability (Dinaciclib + Decitabine; first compound 0.009487 µM): 0.754
- relative viability (Dinaciclib + Decitabine; first compound 0.03 µM): 0.648
- relative viability (Dinaciclib + Decitabine; first compound 0.09487 µM): 0.297
- relative viability (Dinaciclib + Decitabine; first compound 0.3 µM): 0.242
- relative viability (Dinaciclib + Olaparib; first compound 0.009487 µM): 0.775
- relative viability (Dinaciclib + Olaparib; first compound 0.03 µM): 0.361
- relative viability (Dinaciclib + Olaparib; first compound 0.09487 µM): 0.227
- relative viability (Dinaciclib + Olaparib; first compound 0.3 µM): 0.198
- relative viability (Dinaciclib + Vorinostat; first compound 0.009487 µM): 0.777
- relative viability (Dinaciclib + Vorinostat; first compound 0.03 µM): 0.505
- relative viability (Dinaciclib + Vorinostat; first compound 0.09487 µM): 0.178
- relative viability (Dinaciclib + Vorinostat; first compound 0.3 µM): 0.197
- relative viability (Dinaciclib + Alpelisib; first compound 0.009487 µM): 0.934
- relative viability (Dinaciclib + Alpelisib; first compound 0.03 µM): 0.844
- relative viability (Dinaciclib + Alpelisib; first compound 0.09487 µM): 0.248
- relative viability (Dinaciclib + Alpelisib; first compound 0.3 µM): 0.113

Cell Line: NCI-H1915
- relative viability (Dinaciclib + Pemetrexed; first compound 0.009487 µM): 0.471
- relative viability (Dinaciclib + Pemetrexed; first compound 0.03 µM): 0.439
- relative viability (Dinaciclib + Pemetrexed; first compound 0.09487 µM): 0.11
- relative viability (Dinaciclib + Pemetrexed; first compound 0.3 µM): 0.0872
- relative viability (Dinaciclib + Decitabine; first compound 0.009487 µM): 0.253
- relative viability (Dinaciclib + Decitabine; first compound 0.03 µM): 0.24
- relative viability (Dinaciclib + Decitabine; first compound 0.09487 µM): 0.131
- relative viability (Dinaciclib + Decitabine; first compound 0.3 µM): 0.12
- relative viability (Dinaciclib + Olaparib; first compound 0.009487 µM): 0.202
- relative viability (Dinaciclib + Olaparib; first compound 0.03 µM): 0.108
- relative viability (Dinaciclib + Olaparib; first compound 0.09487 µM): 0.112
- relative viability (Dinaciclib + Olaparib; first compound 0.3 µM): 0.0974
- relative viability (Dinaciclib + Vorinostat; first compound 0.009487 µM): 0.534
- relative viability (Dinaciclib + Vorinostat; first compound 0.03 µM): 0.291
- relative viability (Dinaciclib + Vorinostat; first compound 0.09487 µM): 0.116
- relative viability (Dinaciclib + Vorinostat; first compound 0.3 µM): 0.104
- relative viability (Dinaciclib + Alpelisib; first compound 0.009487 µM): 0.866
- relative viability (Dinaciclib + Alpelisib; first compound 0.03 µM): 0.202
- relative viability (Dinaciclib + Alpelisib; first compound 0.09487 µM): 0.108
- relative viability (Dinaciclib + Alpelisib; first compound 0.3 µM): 0.108

Cell Line: ChaGo-K-1
- relative viability (Dinaciclib + Pemetrexed; first compound 0.009487 µM): 0.257
- relative viability (Dinaciclib + Pemetrexed; first compound 0.03 µM): 0.216
- relative viability (Dinaciclib + Pemetrexed; first compound 0.09487 µM): 0.149
- relative viability (Dinaciclib + Pemetrexed; first compound 0.3 µM): 0.119
- relative viability (Dinaciclib + Decitabine; first compound 0.009487 µM): 0.531
- relative viability (Dinaciclib + Decitabine; first compound 0.03 µM): 0.287
- relative viability (Dinaciclib + Decitabine; first compound 0.09487 µM): 0.138
- relative viability (Dinaciclib + Decitabine; first compound 0.3 µM): 0.128
- relative viability (Dinaciclib + Olaparib; first compound 0.009487 µM): 0.371
- relative viability (Dinaciclib + Olaparib; first compound 0.03 µM): 0.145
- relative viability (Dinaciclib + Olaparib; first compound 0.09487 µM): 0.0867
- relative viability (Dinaciclib + Olaparib; first compound 0.3 µM): 0.0975
- relative viability (Dinaciclib + Vorinostat; first compound 0.009487 µM): 0.803
- relative viability (Dinaciclib + Vorinostat; first compound 0.03 µM): 0.197
- relative viability (Dinaciclib + Vorinostat; first compound 0.09487 µM): 0.139
- relative viability (Dinaciclib + Vorinostat; first compound 0.3 µM): 0.112

Cell Line: PC-14
- relative viability (Dinaciclib + Pemetrexed; first compound 0.009487 µM): 0.111
- relative viability (Dinaciclib + Pemetrexed; first compound 0.03 µM): 0.0682
- relative viability (Dinaciclib + Pemetrexed; first compound 0.09487 µM): 0.0557
- relative viability (Dinaciclib + Pemetrexed; first compound 0.3 µM): 0.0571
- relative viability (Dinaciclib + Decitabine; first compound 0.009487 µM): 0.157
- relative viability (Dinaciclib + Decitabine; first compound 0.03 µM): 0.0718
- relative viability (Dinaciclib + Decitabine; first compound 0.09487 µM): 0.0642
- relative viability (Dinaciclib + Decitabine; first compound 0.3 µM): 0.0671
- relative viability (Dinaciclib + Olaparib; first compound 0.009487 µM): 0.143
- relative viability (Dinaciclib + Olaparib; first compound 0.03 µM): 0.0629
- relative viability (Dinaciclib + Olaparib; first compound 0.09487 µM): 0.0502
- relative viability (Dinaciclib + Olaparib; first compound 0.3 µM): 0.0532
- relative viability (Dinaciclib + Vorinostat; first compound 0.009487 µM): 0.737
- relative viability (Dinaciclib + Vorinostat; first compound 0.03 µM): 0.251
- relative viability (Dinaciclib + Vorinostat; first compound 0.09487 µM): 0.0426
- relative viability (Dinaciclib + Vorinostat; first compound 0.3 µM): 0.0456
- relative viability (Dinaciclib + Alpelisib; first compound 0.009487 µM): 0.947
- relative viability (Dinaciclib + Alpelisib; first compound 0.03 µM): 0.515
- relative viability (Dinaciclib + Alpelisib; first compound 0.09487 µM): 0.0838
- relative viability (Dinaciclib + Alpelisib; first compound 0.3 µM): 0.0509

Cell Line: NCI-H1703
- relative viability (Dinaciclib + Olaparib; first compound 0.009487 µM): 0.475
- relative viability (Dinaciclib + Olaparib; first compound 0.03 µM): 0.0997
- relative viability (Dinaciclib + Olaparib; first compound 0.09487 µM): 0.0838
- relative viability (Dinaciclib + Olaparib; first compound 0.3 µM): 0.113
- relative viability (Dinaciclib + Alpelisib; first compound 0.009487 µM): 0.419
- relative viability (Dinaciclib + Alpelisib; first compound 0.03 µM): 0.119
- relative viability (Dinaciclib + Alpelisib; first compound 0.09487 µM): 0.0849
- relative viability (Dinaciclib + Alpelisib; first compound 0.3 µM): 0.115
